The target in the assay is T1, CDK4/Cyclin D1 (Homo sapiens, UniProt P11802).
T1 construct: made in house; host or cells: insect cells (crude cell lysate)
The experiment in a line: Cyclin D1/cdk4 phosphoRb in vitro kinase assay. It is filed as biochemical. The settings on record: for relative potency of inhibition of CDK4/cyclin D1: compared with Compound 4 and Compound 1 (esters or ethers); for IC50: insect cell lysates expressing cyclin D1 and cdk4, GST-Rb substrate, 32P-ATP, read-out: IC50, inhibition of CDK4/Cyclin D1. An excerpt:
The efficacy of a compound in inhibiting the activity of cyclin-dependent kinases can be determined by several methods well known in the art, such as a kinase assay, as described in the Examples section herein, or as described in Losiewics, M. D., et al. (1994) Biochem. Biophys. Res. Commun. 201, 589. Thus, a complex containing the cyclin-dependent kinase and a cyclin is first isolated either from a recombinant source, or immunoprecipitated from cells synchronized at the stage at which a particular cyclin-dependent kinase is present at high levels in the cell. The immunoprecipitates are then incubated in the presence of radiolabelled ATP and an appropriate substrate with various amounts of the inhibitor. The amount of radioactivity associated with the substrate protein can then be determined by various methods well known in the art. The substrate used for the kinase assay will depend on the specific kinase. Typically, histone H1 or CDK1 S1 is used as a substrate for the CDC2 kinase and the retinoblastoma protein is used as a substrate in a kinase assay for CDK4. The kinases, cyclins, and substrates used in the in vitro kinase assay can be proteins isolated from mammalian cells, or alternatively, they can be proteins produced recombinantly, such as in E. Coli.
This example is an illustration of the cyclin-dependent kinase inhibitory activity of the compounds of the invention. The kinase inhibitory activity of several compounds of the invention was determined using an in vitro kinase assay in which the kinase activity of the CDK4 kinase was measured using a Cyclin D1/cdk4 phosphoRb Assay. Briefly, the assay employs cell lysates from insect cells expressing cyclin D1 and cdk4 kinase. The cyclin/cdk lysate is combined in a microtitre-type plate along with a kinase compatible buffer, ^32 P-labeled ATP, a GST-Rb fusion protein, and the test agent. The kinase reaction is allowed to proceed with the radiolabeled ATP, then effectively stopped by the addition of a large excess of unlabeled ATP. The GST-Rb protein is sequestered on a GSH-Sepharose bead suspension, washed, resuspended in scintilant, and ^32 P activity detected in a scintillation counter. The concentration of compound at which 50% of the kinase activity was blocked (IC50) was calculated for each compound.

Here are results for 6 molecules from patent US5733920A, “Inhibitors of cyclin dependent kinases” (Mitotix, Inc., priority 1995, dated 1998).

The structures appear in SMILES notation.

T1 sequence (P11802 whole entry, species assumed): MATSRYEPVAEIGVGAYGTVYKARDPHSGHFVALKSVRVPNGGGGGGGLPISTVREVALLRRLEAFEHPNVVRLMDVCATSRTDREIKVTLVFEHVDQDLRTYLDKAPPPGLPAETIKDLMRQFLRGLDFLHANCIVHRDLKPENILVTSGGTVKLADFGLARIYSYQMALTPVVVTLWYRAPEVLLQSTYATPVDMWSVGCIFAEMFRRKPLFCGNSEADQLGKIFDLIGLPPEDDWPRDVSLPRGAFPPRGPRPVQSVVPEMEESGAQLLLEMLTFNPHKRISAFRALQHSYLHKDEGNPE
T1 sequence (P24385 whole entry partner, species assumed): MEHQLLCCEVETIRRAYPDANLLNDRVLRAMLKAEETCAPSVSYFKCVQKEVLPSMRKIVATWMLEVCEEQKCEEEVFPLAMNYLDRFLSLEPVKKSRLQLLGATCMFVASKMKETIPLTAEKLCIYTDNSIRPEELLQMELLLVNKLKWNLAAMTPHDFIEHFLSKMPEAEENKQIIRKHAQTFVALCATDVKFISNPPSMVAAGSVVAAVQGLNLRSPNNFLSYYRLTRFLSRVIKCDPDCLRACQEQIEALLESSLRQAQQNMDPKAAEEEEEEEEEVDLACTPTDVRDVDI

`CN1CCC(c2c(O)cc(O)c3c(=O)cc(-c4ccccc4Cl)oc23)C(=O)C1` (centres unmarked) [Compound 5]: the “relative potency of inhibition of CDK4/cyclin D1” value is “much more potent inhibitors of CDK4/cyclin D1” and the IC50 was under 50 µM. The matching figures for `CN1CC=C(c2c(O)cc(O)c3c(=O)cc(-c4ccccc4Cl)oc23)CC1` [Compound 3]: “much more potent inhibitors of CDK4/cyclin D1” and under 50 µM.

Take `COc1cc(OC)c2c(=O)cc(-c3ccccc3Cl)oc2c1[C@@H]1CN(C)CC[C@@H]1O` (relative stereo) [Compound 13]: the IC50 was under 250 µM. As for `COc1cc(OC)c2c(=O)cc(-c3ccccc3Cl)oc2c1C1=CCN(C)CC1` [Compound 1], the IC50 was under 250 µM. Turning to `COc1cc(OC)c2c(=O)cc(-c3ccccc3Cl)oc2c1C1CCN(C)CC1=O` (centres unmarked) [Compound 4], the IC50 came to 230 µM. Still for that read-out and setting: the same measure for `CN1CC[C@H](O)[C@H](c2c(O)cc(O)c3c(=O)cc(-c4ccccc4Cl)oc23)C1` (relative stereo) [Compound 14]: under 150 µM.
